Drawing on patent US20250368628A1, “METHODS AND COMPOUNDS FOR MODULATING INHERITED GENETIC DISEASES” (Design Therapeutics, Inc., priority 2022, published 2025), this text covers EC50 for 23 compounds.

For the first assay, the system named is Myotonic Dystrophy 1 affected patient fibroblasts (Coriel GM04602; 1600 CTG repeats). Description: DM1 foci reduction assay (EC50 assay; CAG10-Cy3 FISH, foci per nucleus). Particulars: Homo sapiens, Fibroblast; DM1 patient fibroblasts, 48 h treatment, foci per nucleus; read-out: DM1 EC50, 48 h. The assay is classed as cell-based. Here is the method:
DM1 Foci Reduction Assay Methods
Myotonic Dystrophy 1 affected patient fibroblasts (Coriel GM04602; 1600 CTG repeats) and wild type fibroblasts (Coriell GM07492; control line) were cultured separately in Gibco DMEM (1×)+4.5 g/L D-Glucose+L-Glutamine+[…] Sodium Pyruvate, supplemented with 10% FBS and 1× Pen/Strep. Cells were maintained in an incubator at 37° C. and 5% CO2 with media refreshed every 48-72 hours.
At 90-95% confluency, both cell lines were harvested using Trypl-E then pelleted at 500×g for 5 minutes and were resuspended in fresh media. DM1 fibroblasts were seeded in Agilent 96 well black plates at a density of 5,000 cells/well in 200 μL media; and 8 wells were reserved for control fibroblasts. Plates were returned to incubator for 24 hours at 37° C. and 5% CO2.
Compounds were diluted from 10 mM stock to 1 mM in DMSO and then diluted once more to 6 μM (2× concentration) in media. Media was removed from all plates and cells were replenished with 100 μL media. Cells were treated in 8-point dose response, 1:3 fold dilution, 3 μM top dose via addition of 100 μL of 6 μM (2× concentration) compound to the 100 μL media with cells. Plates were returned to incubator for 48 hours at 37° C. and 5% CO2.
Following treatment, compounds were removed, and plates were washed with PBS, then cells were fixed in 75 μL 4% PFA solution for 20 minutes at room temperature. Plates were washed twice with PBS and twice with cold 70% ethanol before permeabilization with 250 μL cold 70% ethanol for 24-72 hours at −20° C.
After permeabilization, plates were washed once with a 30% formamide and 2×SSC buffer and rehydrated in that buffer for 15 minutes at room temperature. Cells were incubated overnight at 37° C. in 75 μL of a hybridization solution containing 30% formamide, 2×SSC, 25 mg/mL dextran sulfate, 2.5 mg/mL BSA, 0.2 μg/mL Herring sperm DNA, 2 mM vanadyl-ribonucleoside complex, and 5 nM CAG10-Cy3 probe.
Plates were washed once with 30% formamide in 2×SSC buffer, then twice with the buffer for 30 minutes at 37° C., 300 RPM in an incubating plate shaker. Cells were stained with 75 μL of 2.5 μg/mL DAPI in PBS for 5 minutes at room temperature. Plates were then washed twice with PBS and stored in 250 μL PBS. Plates were sealed with adhesive foil and wiped down with 70% ethanol.
Cells were imaged on a Cytation5 with a 20× objective sampling from 4 areas of each well. Nuclei were captured under DAPI channel and foci under RFP channel. Plates were analyzed on an average foci per nucleus per well basis.
On to `CCCNC(=O)CCNC(=O)c1nc(NC(=O)c2cc(NC(=O)CCNC(=O)c3nc(NC(=O)CCCNC(=O)c4cc(NC(=O)c5nc(NC(=O)CCNC(=O)c6cc(NC(=O)c7nccn7C)cn6CCCCCCN=[N+]=[N-])cn5C)cn4C)cn3C)cn2C)cn1C` [Compound B-60], for which the EC50 fell in the range of 100 to 500 nM.

For the compound `Cn1cc(NC(=O)c2nc(NC(=O)CCNC(=O)c3cc(NC(=O)c4nccn4C)cn3C)cn2C)cc1C(=O)NCCCC(=O)Nc1cn(C)c(C(=O)NCCC(=O)Nc2cc(C(=O)Nc3cn(C)c(C(=O)NCCC(=O)N4CCC(N5CCN(CCOCCOCCOCCOCCN)CC5)CC4)n3)n(C)c2)n1` [Compound B-24], the concentration for a half-maximal effect (EC50) is above 1000 nM. Turning to `CCCNC(=O)CCNC(=O)c1nc(NC(=O)c2cc(NC(=O)CCNC(=O)c3nc(NC(=O)CCCCNC(=O)c4cc(NC(=O)c5nc(NC(=O)CCNC(=O)c6cc(NC(=O)c7nccn7C)cn6C)cn5C)cn4C)cn3C)cn2C)cn1C` [Compound B-317], the EC50 is above 1000 nM. Turning to `CN(C)CCCNC(=O)c1cc(NC(=O)CCNC(=O)c2nc(NC(=O)CCCNC(=O)c3cc(NC(=O)c4nc(NC(=O)CCNC(=O)c5cc(NC(=O)c6nccn6C)cn5C)cn4C)cn3C)cn2C)cn1C` [Compound B-212], the EC50 is above 1000 nM.

With `CCCNC(=O)CCNC(=O)c1nc(NC(=O)c2cc(NC(=O)CCNC(=O)c3nc(NC(=O)CCCNC(=O)c4cc(NC(=O)c5nc(NC(=O)CCNC(=O)c6cc(NC(=O)c7nccn7C)cn6C)cn5C)cn4C)cn3C)cn2CCCCCN(CCOCCOCCOCCOC)CCOCCOCCOCCOC)cn1C` [Compound B-157], the EC50 is above 1000 nM. On to `Cn1cc(NC(=O)c2nc(NC(=O)CCNC(=O)c3cc(NC(=O)c4nccn4C)cn3C)cn2C)cc1C(=O)NCCCC(=O)Nc1cn(C)c(C(=O)NCCC(=O)Nc2cc(C(=O)Nc3cn(C)c(C(=O)NCCCCNc4cccc(C(=O)O)c4)n3)n(C)c2)n1` [Compound B-218], for which the EC50 was in the range of 100 to 500 nM.

`Cn1cc(NC(=O)c2nc(NC(=O)CCNC(=O)c3cc(NC(=O)c4nccn4C)cn3C)cn2C)cc1C(=O)NCCCC(=O)Nc1cn(C)c(C(=O)NCCC(=O)Nc2cc(C(=O)Nc3cn(C)c(C(=O)NCCC(=O)N4CCC(C#CC#CC5CCN(CCCNC(=O)c6cccc(C(=O)O)c6)CC5)CC4)n3)n(C)c2)n1` [Compound B-225]: the EC50 is 100 to 500 nM. Consider `Cn1cc(NC(=O)c2nc(NC(=O)CCNC(=O)c3cc(NC(=O)c4nccn4C)cn3C)cn2C)cc1C(=O)NCCCC(=O)Nc1cn(C)c(C(=O)NCCC(=O)Nc2cc(C(=O)Nc3cn(C)c(C(=O)NCCC(=O)NCCOCCN4CCN(C5CCN(c6ccc([N+](=O)[O-])cc6)CC5)CC4)n3)n(C)c2)n1` [Compound B-26], for which the half-maximal effective concentration (EC50) was above 1000 nM. Still for that read-out and setting: for `CCN(CC)CCCC[C@@H](NC(=O)C1CCNCC1)C(=O)NCCOCCOCCOCCOCCOCCNC(=O)CCNC(=O)c1nc(NC(=O)c2cc(NC(=O)CCNC(=O)c3nc(NC(=O)CCCNC(=O)c4cc(NC(=O)c5nc(NC(=O)CCNC(=O)c6cc(NC(=O)c7nccn7C)cn6C)cn5C)cn4C)cn3C)cn2C)cn1C` [Compound B-101] the value was above 1000 nM. As for `Cn1cc(NC(=O)c2nc(NC(=O)CCNC(=O)c3cc(NC(=O)c4nccn4C)cn3C)cn2C)cc1C(=O)NCCCC(=O)Nc1cn(C)c(C(=O)NCCC(=O)Nc2cc(C(=O)Nc3cn(C)c(C(=O)NCCC(=O)N4CCC(CC5CC[N+](C)(C)CC5)CC4)n3)n(C)c2)n1` [Compound B-262], the EC50 is above 1000 nM. Still for that read-out and setting: as for `CN(C)C(=O)c1nc(NC(=O)c2cc(NC(=O)CCNC(=O)c3nc(NC(=O)CCCNC(=O)c4cc(NC(=O)c5nc(NC(=O)CCNC(=O)c6cc(NC(=O)c7nccn7C)cn6C)cn5C)cn4C)cn3C)cn2C)cn1C` [Compound B-314], the figure is above 1000 nM. The same measure, in the same setting: as for `COC(=O)c1cncc(OCCOCCOCCNC(=O)c2nc(NC(=O)c3cc(NC(=O)CCNC(=O)c4nc(NC(=O)CCCNC(=O)c5cc(NC(=O)c6nc(NC(=O)CCNC(=O)c7cc(NC(=O)c8nccn8C)cn7C)cn6C)cn5C)cn4C)cn3C)cn2C)c1` [Compound B-342], the figure is 100 to 500 nM. On the same count and under the same terms, as for `COCCOCCOCCOCCN(CCCCCn1cc(NC(=O)c2nc(NC(=O)CCNC(=O)c3cc(NC(=O)c4nccn4C)cn3C)cn2C)cc1C(=O)NCCCC(=O)Nc1cn(C)c(C(=O)NCCC(=O)Nc2cc(C(=O)Nc3cn(C)c(C(=O)NCCC(=O)N4CCC(N5CCNCC5)CC4)n3)n(C)c2)n1)CCOCCOCCOCCOC` [Compound B-162], the figure is above 1000 nM. In the case of `Cn1cc(NC(=O)c2nc(NC(=O)CCNC(=O)c3cc(NC(=O)c4nccn4C)cn3C)cn2C)cc1C(=O)NCCCC(=O)Nc1cn(C)c(C(=O)NCCC(=O)Nc2cc(C(=O)Nc3cn(C)c(C(=O)NCCC(=O)N4CCN(C5CCN(c6ccc([N+](=O)[O-])cc6)CC5)CC4)n3)n(C)c2)n1` [Compound B-29, 1-Methyl-4-{1-methyl-4-[3-({1-methyl-4-[4-({1-methyl-4-[1-methyl-4-(3-{[1-methyl-4-(1-methylimidazole-2-amido)pyrrol-2-yl]formamido}propanamido)imidazole-2-amido]pyrrol-2-yl}formamido)butanamido]imidazol-2-yl}formamido)propanamido]pyrrole-2-amido}-N-(3-{4-[1-(4-nitrophenyl)piperidin-4-yl]piperazin-1-yl}-3-oxopropyl)imidazole-2-carboxamide], the EC50 was above 1000 nM. On the same count and under the same terms, as for `CCN(CC)CCCC[C@H](NC(=O)c1cccc(C(=O)OC(C)(C)C)c1)C(=O)NCCOCCOCCOCCOCCOCCNC(=O)c1nc(NC(=O)c2cc(NC(=O)CCNC(=O)c3nc(NC(=O)CCCNC(=O)c4cc(NC(=O)c5nc(NC(=O)CCNC(=O)c6cc(NC(=O)c7nccn7C)cn6C)cn5C)cn4C)cn3C)cn2C)cn1C` [Compound B-344], the figure is 500 to 1000 nM; as for `COCCOCCOCCOCCOCCOCCNC(=O)c1nc(NC(=O)c2cc(NC(=O)CCNC(=O)c3nc(NC(=O)CCCNC(=O)c4cc(NC(=O)c5nc(NC(=O)CCNC(=O)c6cc(NC(=O)c7nccn7C)cn6C)cn5C)cn4C)cn3C)cn2C)cn1C` [Compound B-204], 500 to 1000 nM; as for `Cn1cc(NC(=O)c2nc(NC(=O)CCNC(=O)c3cc(NC(=O)c4nccn4C)cn3C)cn2C)cc1C(=O)NCCCC(=O)Nc1cn(C)c(C(=O)NCCC(=O)Nc2cc(C(=O)Nc3cn(C)c(C(=O)NCCC(=O)NCCOCCN4CCN(C5CCN(c6ccc(N)cc6)CC5)CC4)n3)n(C)c2)n1` [Compound B-155], above 1000 nM. For `CCN(CC)CCCC[C@@H](NC(C)=O)C(=O)NCCOCCOCCNC(=O)CCNC(=O)c1nc(NC(=O)CCNC(=O)c2cc(NC(=O)c3nc(NC(=O)CCCNC(=O)c4cc(NC(=O)c5nc(NC(=O)CCNC(=O)c6cc(NC(C)c7nccn7C)cn6C)cn5C)cn4C)cn3C)cn2C)cn1C` (some centres unmarked) [Compound B-97], the EC50 was 100 to 500 nM. Still for that read-out and setting: as for `CCN(CC)CCCC[C@@H](NC(C)=O)C(=O)NCCNC(=O)CCNC(=O)c1nc(NC(=O)CCNC(=O)c2cc(NC(=O)c3nc(NC(=O)CCCNC(=O)c4cc(NC(=O)c5nc(NC(=O)CCNC(=O)c6cc(NC(C)c7nccn7C)cn6C)cn5C)cn4C)cn3C)cn2C)cn1C` (some centres unmarked) [Compound B-98], the figure is above 1000 nM; as for `Cn1cc(NC(=O)c2nc(NC(=O)CCNC(=O)c3cc(NC(=O)c4nccn4C)cn3C)cn2C)cc1C(=O)NCCCC(=O)Nc1cn(C)c(C(=O)NCCC(=O)Nc2cc(C(=O)Nc3cn(C)c(C(=O)NCCC(=O)N4CCC(O)(C#CC5CCNCC5)CC4)n3)n(C)c2)n1` [Compound B-196], above 1000 nM. On the same count and under the same terms, as for `Cn1cc(NC(=O)c2nc(NC(=O)c3cc(NC(=O)CCNC(=O)c4nccn4C)cn3C)cn2C)cc1C(=O)NCCCC(=O)Nc1cn(C)c(C(=O)NCCC(=O)Nc2cc(C(=O)Nc3cn(C)c(C(=O)NCCC(=O)NCCCCN=[N+]=[N-])n3)n(C)c2)n1` [Compound B-84], the figure is above 1000 nM; as for `CN1CCC(NC(=O)CCNC(=O)c2nc(NC(=O)c3cc(NC(=O)CCNC(=O)c4nc(NC(=O)CCCNC(=O)c5cc(NC(=O)c6nc(NC(=O)CCNC(=O)c7cc(NC(=O)c8nccn8C)cn7C)cn6C)cn5C)cn4C)cn3C)cn2C)CC1` [Compound B-55], 100 to 500 nM.

The same assay, now with this note: Homo sapiens, Fibroblast; DM1 patient fibroblasts, foci per nucleus, 48 h treatment; read-out: DM1 EC50, 48 h.
Turning to `CCCNC(=O)c1nc(NC(=O)c2cc(NC(=O)CCNC(=O)c3nc(NC(=O)CC4(CNC(=O)c5cc(NC(=O)c6nc(NC(=O)CCNC(=O)c7cc(NC(=O)c8nccn8C)cn7C)cn6C)cn5C)CC4)cn3C)cn2C)cn1C` [Compound B-435, 1-methyl-4-(3-{[1-methyl-4-(1-methylimidazole-2-amido)pyrrol-2-yl]formamido}propanamido)-N-[1-methyl-5-({[1-({[1-methyl-2-({2-[(1-methyl-5-{[1-methyl-2-(propylcarbamoyl)imidazol-4-yl]carbamoyl}pyrrol-3-yl)carbamoyl]ethyl}carbamoyl)imidazol-4-yl]carbamoyl}methyl)cyclopropyl]methyl}carbamoyl)pyrrol-3-yl]imidazole-2-carboxamide], the 50% effective concentration (EC50) is below 100 nM.
